Data taken from ChEMBL document CHEMBL1201862, “PubChem BioAssay data set” (2004).
Calls of active or inactive are those of the source.

Tests used:
[1] = target: T1, Melanin-concentrating hormone receptor 1 (Homo sapiens, UniProt Q99705); assay: Late-stage fluorescence-based counterscreen for antagonists of the G-protein coupled receptor 7 (GPR7): cell-based dose response assay to identify antagonists of the melanin-concentrating hormone receptor 1 (MCHR1). [Related pubchem assays (depositor defined):AID1861, AID1880, AID1952, AID2148, AID2251, AID2257, AID485339]; type: functional
T1 sequence (Q99705 whole entry): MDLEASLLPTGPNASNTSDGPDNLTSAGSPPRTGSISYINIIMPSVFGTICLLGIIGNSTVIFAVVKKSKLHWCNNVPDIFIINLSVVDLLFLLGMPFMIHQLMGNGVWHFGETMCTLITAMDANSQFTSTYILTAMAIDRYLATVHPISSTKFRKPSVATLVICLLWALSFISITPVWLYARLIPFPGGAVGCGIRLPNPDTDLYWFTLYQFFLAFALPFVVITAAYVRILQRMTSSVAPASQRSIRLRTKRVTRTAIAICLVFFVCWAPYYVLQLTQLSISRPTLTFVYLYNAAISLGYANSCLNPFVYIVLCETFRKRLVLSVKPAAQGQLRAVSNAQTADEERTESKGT

[2] = target: T2, Neuropeptides B/W receptor type 1 (Homo sapiens, UniProt P48145); assay: GPR7 antagonist potency, late-stage follow-up, cell-based, fluorescence, dose response (AID 463251); type: functional
T2 sequence (P48145 whole entry): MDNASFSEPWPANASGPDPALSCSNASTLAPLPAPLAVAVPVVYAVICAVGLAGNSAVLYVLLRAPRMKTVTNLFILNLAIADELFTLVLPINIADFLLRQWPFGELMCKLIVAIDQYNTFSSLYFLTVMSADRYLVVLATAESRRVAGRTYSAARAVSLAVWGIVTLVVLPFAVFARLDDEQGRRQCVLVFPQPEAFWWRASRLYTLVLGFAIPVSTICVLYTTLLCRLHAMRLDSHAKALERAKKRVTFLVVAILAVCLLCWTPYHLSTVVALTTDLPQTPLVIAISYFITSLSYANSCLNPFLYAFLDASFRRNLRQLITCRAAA

[3] = target: Photoreceptor-specific nuclear receptor (Homo sapiens, UniProt Q9Y5X4); type: functional, cell-based;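 note: CHO-S cells with Gal4-NCOR and VP16-NR2E3 two-hybrid luciferase reporter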
Chain of Photoreceptor-specific nuclear receptor (Q9Y5X4 whole entry, the tested form may be a part): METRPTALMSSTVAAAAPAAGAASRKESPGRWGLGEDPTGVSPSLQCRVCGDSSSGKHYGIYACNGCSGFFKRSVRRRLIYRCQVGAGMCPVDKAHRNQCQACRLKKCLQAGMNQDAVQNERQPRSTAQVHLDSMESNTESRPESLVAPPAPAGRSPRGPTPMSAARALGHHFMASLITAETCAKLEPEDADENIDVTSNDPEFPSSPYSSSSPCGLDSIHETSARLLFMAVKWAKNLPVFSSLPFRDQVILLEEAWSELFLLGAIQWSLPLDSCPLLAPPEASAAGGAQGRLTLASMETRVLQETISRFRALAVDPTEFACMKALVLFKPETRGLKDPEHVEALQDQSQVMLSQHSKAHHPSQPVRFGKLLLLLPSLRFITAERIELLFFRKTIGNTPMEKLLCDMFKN

[4] = target: T3, Beta-galactosidase (Escherichia coli, UniProt Q8VNN2); assay: beta-galactosidase enzyme inhibitors and activators, dose response, artefact control for CCR6 antagonist project, biochemical, E. coli enzyme, set 3 (AID 504712); type: functional
T3 sequence (Q8VNN2 whole entry): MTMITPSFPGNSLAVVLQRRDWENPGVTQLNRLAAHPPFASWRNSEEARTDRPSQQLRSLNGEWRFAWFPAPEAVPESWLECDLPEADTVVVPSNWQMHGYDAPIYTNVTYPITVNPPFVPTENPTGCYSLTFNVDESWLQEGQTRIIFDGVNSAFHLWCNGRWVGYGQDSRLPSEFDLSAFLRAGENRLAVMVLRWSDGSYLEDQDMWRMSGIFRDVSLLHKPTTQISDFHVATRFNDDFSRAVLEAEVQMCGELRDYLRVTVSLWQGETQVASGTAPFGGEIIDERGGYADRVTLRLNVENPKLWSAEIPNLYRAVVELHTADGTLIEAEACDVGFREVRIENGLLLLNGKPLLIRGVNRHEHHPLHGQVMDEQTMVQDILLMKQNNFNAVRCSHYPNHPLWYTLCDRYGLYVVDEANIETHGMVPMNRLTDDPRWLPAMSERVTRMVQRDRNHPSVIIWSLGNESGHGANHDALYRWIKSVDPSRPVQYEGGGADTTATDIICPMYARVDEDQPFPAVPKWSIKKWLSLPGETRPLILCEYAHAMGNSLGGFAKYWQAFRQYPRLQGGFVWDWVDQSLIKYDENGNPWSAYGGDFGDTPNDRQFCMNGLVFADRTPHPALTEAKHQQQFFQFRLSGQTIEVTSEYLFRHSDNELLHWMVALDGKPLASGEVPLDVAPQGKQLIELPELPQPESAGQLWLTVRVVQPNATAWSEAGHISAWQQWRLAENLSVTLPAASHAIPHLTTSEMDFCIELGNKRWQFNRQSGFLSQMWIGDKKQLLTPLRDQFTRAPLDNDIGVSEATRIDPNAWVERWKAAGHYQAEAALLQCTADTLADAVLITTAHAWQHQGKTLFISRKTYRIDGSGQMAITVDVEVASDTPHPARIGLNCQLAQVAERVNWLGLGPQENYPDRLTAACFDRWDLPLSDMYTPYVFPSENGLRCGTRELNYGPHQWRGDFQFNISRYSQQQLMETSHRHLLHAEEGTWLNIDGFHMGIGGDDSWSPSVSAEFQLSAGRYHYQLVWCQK

[5] = target: Ion channel NompC (Danio rerio, UniProt Q7T1G6); assay: Fluorescence counterscreen assay for TRPML3 agonists: dose response cell-based high-throughput screening assay to identify agonists of the transient receptor potential channel N1 (TRPN1). [Related pubchem assays: 1526, 1424, 1448 ]; type: functional
[6] = target: T4, Kappa-type opioid receptor (Homo sapiens, UniProt P41145); type: functional
T4 sequence (P41145 whole entry): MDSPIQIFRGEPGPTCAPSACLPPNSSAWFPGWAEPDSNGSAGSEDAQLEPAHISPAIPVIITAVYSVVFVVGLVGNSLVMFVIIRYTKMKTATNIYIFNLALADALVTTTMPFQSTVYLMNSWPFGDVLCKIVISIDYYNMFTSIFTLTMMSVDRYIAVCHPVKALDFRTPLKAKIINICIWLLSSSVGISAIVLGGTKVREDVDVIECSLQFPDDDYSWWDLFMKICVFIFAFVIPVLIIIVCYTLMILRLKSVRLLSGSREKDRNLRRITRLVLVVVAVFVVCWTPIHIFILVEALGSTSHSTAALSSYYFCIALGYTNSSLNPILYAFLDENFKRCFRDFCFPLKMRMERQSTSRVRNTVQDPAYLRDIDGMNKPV

[7] = target: T4, Kappa-type opioid receptor; type: functional; remark: listed apart in the source
[8] = target: T5, Mucolipin-3 (Homo sapiens, UniProt Q8TDD5); assay: Dose response cell-based high-throughput screening assay for agonists of the transient receptor potential channel ML3 (TRPML3). [Related pubchem assays: 1526, 1424, 1448 ]; type: functional
T5 sequence (Q8TDD5 whole entry): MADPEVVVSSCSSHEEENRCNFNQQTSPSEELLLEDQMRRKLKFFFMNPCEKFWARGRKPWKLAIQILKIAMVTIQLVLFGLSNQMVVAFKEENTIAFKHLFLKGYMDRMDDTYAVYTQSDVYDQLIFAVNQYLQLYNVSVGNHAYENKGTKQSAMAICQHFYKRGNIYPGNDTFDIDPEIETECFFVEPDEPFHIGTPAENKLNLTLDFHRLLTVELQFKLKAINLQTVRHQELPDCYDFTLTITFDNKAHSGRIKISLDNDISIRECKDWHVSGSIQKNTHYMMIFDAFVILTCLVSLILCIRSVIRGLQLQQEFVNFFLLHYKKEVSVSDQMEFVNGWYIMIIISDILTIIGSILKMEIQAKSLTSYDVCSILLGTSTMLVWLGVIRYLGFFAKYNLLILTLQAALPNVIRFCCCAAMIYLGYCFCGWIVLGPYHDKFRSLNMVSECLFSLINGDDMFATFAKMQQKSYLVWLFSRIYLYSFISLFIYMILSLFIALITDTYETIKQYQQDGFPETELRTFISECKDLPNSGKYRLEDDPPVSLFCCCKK

[9] = target: T3, Beta-galactosidase; type: functional
[10] = target: T6, Delta-type opioid receptor (Homo sapiens, UniProt P41143); assay: HTS Image-Based Screen for Antagonists of the DOR Receptor. [Related pubchem assays (depositor defined):AID1777, AID1785, AID1786, AID2133]; type: functional
T6 sequence (P41143 whole entry): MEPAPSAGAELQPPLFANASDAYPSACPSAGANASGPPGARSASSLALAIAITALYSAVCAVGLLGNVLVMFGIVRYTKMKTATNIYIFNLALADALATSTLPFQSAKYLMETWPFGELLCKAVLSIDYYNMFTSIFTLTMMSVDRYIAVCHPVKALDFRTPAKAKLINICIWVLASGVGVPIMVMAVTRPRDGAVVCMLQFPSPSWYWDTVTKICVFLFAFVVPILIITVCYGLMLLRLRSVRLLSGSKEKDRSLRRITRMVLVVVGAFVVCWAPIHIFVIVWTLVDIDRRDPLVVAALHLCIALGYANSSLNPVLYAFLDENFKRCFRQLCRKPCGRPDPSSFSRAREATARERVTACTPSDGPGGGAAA

[11] = target: T6, Delta-type opioid receptor; assay: HTS Image-Based Screen for Agonists of the DOR Receptor. [Related pubchem assays (depositor defined):AID1777, AID1786, AID2133]; type: functional
[12] = target: T4, Kappa-type opioid receptor; type: functional; remark: listed apart in the source
[13] = target: T7, Heat shock factor protein 1 (Mus musculus, UniProt P38532); assay: HSF1 potentiators in luciferase reporter cells, confirmation, cell-based, NIH3T3, luminescence, dose retest (AID 435004); type: functional;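 note: stress induced by proteasome inhibitor MG132 added 30 min after compound; luciferase reporter driven by HSF1 response element in NIH3T3 cells; actives raise luminescence as potentiators of the MG132 stress response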
T7 sequence (P38532 whole entry): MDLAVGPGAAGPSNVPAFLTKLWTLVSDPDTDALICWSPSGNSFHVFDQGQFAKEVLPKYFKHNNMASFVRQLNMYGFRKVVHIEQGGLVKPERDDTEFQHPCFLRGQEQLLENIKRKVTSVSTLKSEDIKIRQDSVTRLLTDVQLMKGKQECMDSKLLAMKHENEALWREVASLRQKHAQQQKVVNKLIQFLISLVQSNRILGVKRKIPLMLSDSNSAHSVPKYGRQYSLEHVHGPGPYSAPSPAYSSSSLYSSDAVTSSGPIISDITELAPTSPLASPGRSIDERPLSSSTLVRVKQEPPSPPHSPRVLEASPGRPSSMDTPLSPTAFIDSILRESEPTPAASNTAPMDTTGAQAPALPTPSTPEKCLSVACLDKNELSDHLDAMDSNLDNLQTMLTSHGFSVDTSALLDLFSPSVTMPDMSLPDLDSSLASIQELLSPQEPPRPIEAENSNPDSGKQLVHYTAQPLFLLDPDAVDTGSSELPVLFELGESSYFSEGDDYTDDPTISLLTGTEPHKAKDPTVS

[14] = target: T1, Melanin-concentrating hormone receptor 1; assay: Fluorescence-based counterscreen for antagonists of the G-protein coupled receptor 7 (GPR7): cell-based high throughput dose response assay to identify antagonists of the melanin-concentrating hormone receptor 1 (MCHR1).; type: functional
[15] = target: T8, Mu-type opioid receptor (Homo sapiens, UniProt P35372); assay: HTS Image-Based Screen for Agonists of the MOR Receptor. [Related pubchem assays (depositor defined):AID1777, AID1785, AID1786, AID2133]; type: functional
T8 sequence (P35372 whole entry): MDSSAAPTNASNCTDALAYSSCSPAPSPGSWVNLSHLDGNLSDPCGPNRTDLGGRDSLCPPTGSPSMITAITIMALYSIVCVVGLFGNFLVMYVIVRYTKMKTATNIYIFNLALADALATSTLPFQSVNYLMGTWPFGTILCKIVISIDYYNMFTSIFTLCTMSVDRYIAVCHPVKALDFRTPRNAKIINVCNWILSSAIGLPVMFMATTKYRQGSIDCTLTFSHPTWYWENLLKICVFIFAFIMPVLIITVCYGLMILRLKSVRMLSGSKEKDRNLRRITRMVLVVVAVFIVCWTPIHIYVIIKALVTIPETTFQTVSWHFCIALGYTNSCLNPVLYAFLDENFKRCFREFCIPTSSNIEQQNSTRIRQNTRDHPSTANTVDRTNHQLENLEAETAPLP

[16] = target: T2, Neuropeptides B/W receptor type 1; assay: Fluorescence-based dose response cell-based high throughput screening assay to identify antagonists of the G-protein coupled receptor 7 (GPR7). [Related pubchem assays: 1952 (Screening assay (GPR7 antagonists).), 1880 (Summary AID.)]; type: functional
[17] = target: T4, Kappa-type opioid receptor; type: functional; remark: listed apart in the source
[18] = target: T6, Delta-type opioid receptor; assay: SAR Analysis of Antagonists of the DOR Receptor using an Image-Based Assay - Set 3. [Related pubchem assays (depositor defined):AID1777, AID1785]; type: functional
[19] = target: T8, Mu-type opioid receptor; assay: SAR Analysis of Antagonists of the MOR Receptor using an Image-Based Assay - Set 3. [Related pubchem assays (depositor defined):AID1777, AID1785, AID1786, AID1966, AID2133, AID2136, AID2284, AID2285, AID2420]; type: functional
[20] = target: Nonstructural protein 1 (Influenza A virus, UniProt Q194T2); type: functional, Influenza A virus (A/California/07/2009(H1N1))
[21] = target: T9, Sentrin-specific protease 1 (Homo sapiens, UniProt Q9P0U3); assay: potency of human SENP1 inhibitors, dose response, biochemical, kinetic FRET (AID 651697); type: functional; settings: read-out: IC50_Mean
T9 sequence (Q9P0U3 whole entry): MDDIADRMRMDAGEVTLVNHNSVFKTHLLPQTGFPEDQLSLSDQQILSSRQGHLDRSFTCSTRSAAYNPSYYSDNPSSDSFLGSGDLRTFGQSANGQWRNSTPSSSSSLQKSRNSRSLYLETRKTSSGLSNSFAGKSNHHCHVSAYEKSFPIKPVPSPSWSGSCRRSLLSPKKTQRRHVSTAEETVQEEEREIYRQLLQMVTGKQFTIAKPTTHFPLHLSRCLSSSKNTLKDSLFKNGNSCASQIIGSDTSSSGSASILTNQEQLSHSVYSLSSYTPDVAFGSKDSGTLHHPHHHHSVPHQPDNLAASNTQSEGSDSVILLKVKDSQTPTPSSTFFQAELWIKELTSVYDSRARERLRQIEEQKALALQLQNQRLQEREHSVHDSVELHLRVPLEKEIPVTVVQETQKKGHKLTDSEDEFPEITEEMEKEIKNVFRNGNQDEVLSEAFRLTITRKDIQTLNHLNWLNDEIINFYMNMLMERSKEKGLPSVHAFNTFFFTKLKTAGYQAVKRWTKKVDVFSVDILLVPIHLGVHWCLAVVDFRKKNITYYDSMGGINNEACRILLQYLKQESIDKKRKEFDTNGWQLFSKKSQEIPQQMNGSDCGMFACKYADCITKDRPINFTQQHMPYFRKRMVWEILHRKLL

[22] = target: T10, Corticotropin-releasing factor receptor 2/Corticotropin-releasing factor-binding protein (Homo sapiens, UniProt P24387+Q13324); assay: activators of CRF receptor 2 with binding protein – uHTS hits, confirmation (AID 602473); type: functional; settings: read-out: EC50_Mean
T10 sequence (Q13324 whole entry): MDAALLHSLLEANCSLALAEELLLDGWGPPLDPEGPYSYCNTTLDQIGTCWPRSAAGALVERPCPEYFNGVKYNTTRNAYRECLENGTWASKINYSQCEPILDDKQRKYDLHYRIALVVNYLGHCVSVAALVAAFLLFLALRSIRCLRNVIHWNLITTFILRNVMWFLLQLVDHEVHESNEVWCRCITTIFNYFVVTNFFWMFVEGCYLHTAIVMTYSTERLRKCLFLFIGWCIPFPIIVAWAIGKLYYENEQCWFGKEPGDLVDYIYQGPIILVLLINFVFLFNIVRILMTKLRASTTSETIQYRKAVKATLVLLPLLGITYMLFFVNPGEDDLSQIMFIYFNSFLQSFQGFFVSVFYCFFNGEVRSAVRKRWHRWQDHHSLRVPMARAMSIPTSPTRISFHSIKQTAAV
T10 sequence (P24387 whole entry): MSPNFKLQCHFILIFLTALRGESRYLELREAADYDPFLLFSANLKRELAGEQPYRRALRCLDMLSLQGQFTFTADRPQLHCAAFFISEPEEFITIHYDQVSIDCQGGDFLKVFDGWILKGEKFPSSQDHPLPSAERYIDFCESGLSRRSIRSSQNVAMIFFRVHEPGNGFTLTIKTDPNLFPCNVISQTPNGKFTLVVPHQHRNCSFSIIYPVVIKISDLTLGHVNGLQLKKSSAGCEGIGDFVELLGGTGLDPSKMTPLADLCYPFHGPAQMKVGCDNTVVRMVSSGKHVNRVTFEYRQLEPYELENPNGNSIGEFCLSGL

[23] = target: T9, Sentrin-specific protease 1; assay: Dose response confirmation of small molecule inhibitors of the catalytic domain of the SUMO protease, SENP1 in a FRET assay.; type: functional; settings: read-out: IC50_Mean
[24] = target: T11, Polyadenylate-binding protein 1 (Homo sapiens, UniProt P11940); assay: PABP1 MLLE–PAM2 interaction inhibitors, dose response, miRNA deadenylation inhibitor project, biochemical, fluorescence polarization, Cy5-PAM2 peptide, secondary (AID 602260); type: functional; settings: read-out: IC50_Mean
T11 sequence (P11940 whole entry): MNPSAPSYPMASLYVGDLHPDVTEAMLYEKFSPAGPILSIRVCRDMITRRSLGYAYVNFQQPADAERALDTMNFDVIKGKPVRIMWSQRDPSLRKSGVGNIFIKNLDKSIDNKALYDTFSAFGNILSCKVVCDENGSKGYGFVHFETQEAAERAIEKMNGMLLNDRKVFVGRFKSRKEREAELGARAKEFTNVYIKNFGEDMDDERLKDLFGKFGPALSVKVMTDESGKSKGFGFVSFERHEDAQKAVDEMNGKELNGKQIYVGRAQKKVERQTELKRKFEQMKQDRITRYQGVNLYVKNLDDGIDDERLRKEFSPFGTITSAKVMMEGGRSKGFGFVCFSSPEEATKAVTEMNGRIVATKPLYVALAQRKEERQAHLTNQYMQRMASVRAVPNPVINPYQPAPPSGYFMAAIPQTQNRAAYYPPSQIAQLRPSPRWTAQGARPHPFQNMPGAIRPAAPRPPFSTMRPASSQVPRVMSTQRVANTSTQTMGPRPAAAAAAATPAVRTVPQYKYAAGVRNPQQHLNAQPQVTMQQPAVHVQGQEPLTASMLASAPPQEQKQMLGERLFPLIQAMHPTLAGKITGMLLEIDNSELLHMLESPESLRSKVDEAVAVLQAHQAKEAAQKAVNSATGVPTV

[25] = target: T11, Polyadenylate-binding protein 1; assay: PABP1 MLLE–PAM2 binding inhibitor potency, dose response, biochemical, fluorescence polarization, FITC-PAM2 peptide (AID 602259); type: functional; settings: read-out: IC50_Mean
[26] = target: Protein Rev (Human immunodeficiency virus type 1 group M subtype B (isolate HXB2)(HIV-1), UniProt P04618); assay: inhibitors of Rev binding to RRE RNA, dose response, biochemical, fluorescence polarization, HIV-1 (AID 434976); design: species or system Human immunodeficiency virus 1
Chain of Protein Rev (P04618 whole entry): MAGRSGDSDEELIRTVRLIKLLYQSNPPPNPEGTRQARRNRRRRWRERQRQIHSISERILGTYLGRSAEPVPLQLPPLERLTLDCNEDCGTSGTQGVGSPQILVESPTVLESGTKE

[27] = target: Female germline-specific tumor suppressor gld-1 (Caenorhabditis elegans, UniProt Q17339); assay: inhibitors of GLD-1 binding to TGE RNA, dose response, biochemical, fluorescence polarization, C. elegans (AID 2802);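 note: fluorescence polarization of labeled TGE RNA bound by purified gld-1 protein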
Chain of Female germline-specific tumor suppressor gld-1 (Q17339 whole entry): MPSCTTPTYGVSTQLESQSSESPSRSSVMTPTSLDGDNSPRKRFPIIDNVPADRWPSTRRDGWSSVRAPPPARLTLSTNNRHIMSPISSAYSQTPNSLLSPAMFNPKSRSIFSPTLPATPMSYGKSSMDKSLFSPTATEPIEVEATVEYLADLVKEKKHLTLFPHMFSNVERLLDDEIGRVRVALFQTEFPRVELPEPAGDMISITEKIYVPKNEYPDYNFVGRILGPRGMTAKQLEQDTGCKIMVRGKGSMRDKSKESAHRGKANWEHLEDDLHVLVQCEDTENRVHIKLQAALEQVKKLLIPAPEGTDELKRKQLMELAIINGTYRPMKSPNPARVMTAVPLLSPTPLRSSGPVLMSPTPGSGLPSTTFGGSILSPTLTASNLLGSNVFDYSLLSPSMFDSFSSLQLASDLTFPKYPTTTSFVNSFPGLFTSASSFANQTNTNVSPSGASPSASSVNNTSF

[28] = target: G-protein coupled receptor 55 (Homo sapiens, UniProt Q9Y2T6); assay: GPR55 antagonists blocking LPI-driven arrestin recruitment, primary screen, imaging, U2OS, beta-arrestin-GFP, LPI agonist (AID 2013); type: functional;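 note: antagonist potency measured as reduced agonist-driven arrestin aggregation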
Chain of G-protein coupled receptor 55 (Q9Y2T6 whole entry): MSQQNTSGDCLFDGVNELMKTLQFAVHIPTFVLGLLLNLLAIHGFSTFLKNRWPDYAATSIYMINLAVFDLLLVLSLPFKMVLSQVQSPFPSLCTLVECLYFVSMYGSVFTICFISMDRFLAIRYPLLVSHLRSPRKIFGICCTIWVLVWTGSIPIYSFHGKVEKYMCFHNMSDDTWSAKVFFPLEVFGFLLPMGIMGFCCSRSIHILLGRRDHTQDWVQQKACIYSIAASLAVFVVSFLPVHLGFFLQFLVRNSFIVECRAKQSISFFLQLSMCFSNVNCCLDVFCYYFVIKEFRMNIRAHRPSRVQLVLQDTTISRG

[29] = target: Hexokinase (Trypanosoma brucei, UniProt Q38C41); assay: Confirmation assay for inhibitors of Trypanosoma brucei hexokinase 1-Analogue-first series. [Related pubchem assays (depositor defined):AID1430, AID1632, AID2516, AID2560, AID2579, AID2600, AID449725, AID492951]; type: functional
Chain of Hexokinase (Q38C41 whole entry): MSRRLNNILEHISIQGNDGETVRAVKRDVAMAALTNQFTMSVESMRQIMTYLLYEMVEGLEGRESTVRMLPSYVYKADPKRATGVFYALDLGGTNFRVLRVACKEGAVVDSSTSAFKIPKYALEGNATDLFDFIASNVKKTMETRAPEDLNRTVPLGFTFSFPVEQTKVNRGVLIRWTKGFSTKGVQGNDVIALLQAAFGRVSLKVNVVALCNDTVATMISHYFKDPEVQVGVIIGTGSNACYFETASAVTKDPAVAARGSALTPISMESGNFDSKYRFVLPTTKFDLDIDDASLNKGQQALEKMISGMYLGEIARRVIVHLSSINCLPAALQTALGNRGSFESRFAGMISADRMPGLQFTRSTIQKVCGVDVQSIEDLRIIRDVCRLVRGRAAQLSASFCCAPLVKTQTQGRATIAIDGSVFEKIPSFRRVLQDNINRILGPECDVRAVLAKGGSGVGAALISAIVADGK

[30] = target: Voltage-dependent T-type calcium channel subunit alpha-1H (Homo sapiens, UniProt O95180); assay: Cav3.2 T-type channel inhibitors, cell-based, synthetic library set 1, calcium flux (AID 493022); type: functional

Cc1cccc(CN2CCCCC2C(=O)N2CCN(c3ccc([N+](=O)[O-])cc3)CC2)c1 (stereo not given)
IC50 [1]: 6.1 µM (active)
IC50 [2]: 10 µM (active)

N=C1SCC(=O)N1c1ncc(Cc2ccccc2Cl)s1
IC50 [3]: 3 µM (active)
IC50 [4]: > 66.6 µM (inactive)
EC50 [5]: > 29.9 µM (not active)
IC50 [6]: > 32 µM
IC50 [7]: 6.6 µM (active)
EC50 [8]: 1.16 µM (active)
EC50 [9]: > 31.5 µM (inactive)

O=C(c1ccccn1)N(Cc1ccco1)C1(C(=O)NC2CCCC2)CCCCC1
IC50 [10]: > 32 µM (inactive)
EC50 [11]: > 32 µM (inactive)
EC50 [12]: 12.3 µM
EC50 [13]: > 260 µM (inactive)
IC50 [14]: > 43.8 µM (not active)
EC50 [15]: > 32 µM (inactive)
IC50 [16]: > 43.8 µM (not active)
EC50 [17]: 14.6 µM

COc1ccc(N2CCN(CCCNC(=O)Cn3c(=O)c4cccn4c4c(C)ccnc43)CC2)cc1
IC50 [18]: > 32 µM (inactive)
IC50 [19]: > 32 µM (inactive)

Nc1[nH]n(-c2ccccc2)c(=O)c1N=Nc1ccc2c(c1)OCCO2
IC50 [20]: 28.8 µM (active)

O=C1C2=C(SCCS2)C(=O)N1CCCO
IC50 [21]: 20.5 µM (inactive)
EC50 [22]: > 53 µM (inactive)
IC50 [23]: 35.2 µM (inactive)
IC50 [24]: > 66 µM (inactive)
IC50 [25]: 28 µM (inactive)
IC50 [26]: > 75.4 µM (not active)
IC50 [27]: 4.07 µM (active)

C[C@H](NC(=O)c1nc[nH]c1C(=O)Nc1ccc(CNC(=O)OC(C)(C)C)cc1)C(=O)OC(C)(C)C
IC50 [28]: 2.55 µM (active)

Cc1ccccc1N1Cc2ccccc2C1=O
IC50 [29]: > 25 µM (inactive)

O=C(COc1ccccc1Cl)Nc1nnc(-c2ccc3ccccc3c2)o1
EC50 [30]: 4.8 µM (active)
